Assay results taken from BindingDB's records for patent US10301305 (Mutabilis, 2019).

How the values were obtained:
Test in all cases: in vitro DltA activity assay
[1] = biological target: T1, D-alanine--D-alanyl carrier protein ligase (Enterococcus faecalis (strain ATCC 700802 / V583), UniProt Q830N0)
T1 sequence (Q830N0 whole entry): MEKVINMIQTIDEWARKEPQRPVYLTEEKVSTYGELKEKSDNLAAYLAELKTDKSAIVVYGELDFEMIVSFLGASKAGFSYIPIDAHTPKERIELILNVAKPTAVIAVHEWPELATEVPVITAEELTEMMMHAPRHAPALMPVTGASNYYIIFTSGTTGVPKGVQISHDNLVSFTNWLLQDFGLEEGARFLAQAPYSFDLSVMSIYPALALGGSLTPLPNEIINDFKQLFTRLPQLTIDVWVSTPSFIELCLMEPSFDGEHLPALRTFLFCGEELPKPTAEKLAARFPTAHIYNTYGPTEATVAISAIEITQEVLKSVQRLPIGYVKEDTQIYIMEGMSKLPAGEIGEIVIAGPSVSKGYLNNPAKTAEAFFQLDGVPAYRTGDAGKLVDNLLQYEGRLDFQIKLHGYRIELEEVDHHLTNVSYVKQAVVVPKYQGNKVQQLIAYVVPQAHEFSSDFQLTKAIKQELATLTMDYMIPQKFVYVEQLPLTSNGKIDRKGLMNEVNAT
Protocol: (§1) The assay buffer AB contained 50 mM Hepes pH8.0, 10 mM MgCl2, 50 mM KCl, 0.012% Triton-X100, 10 mM DTT and 100 nM Myelin-basic protein. The following components were added in a white polystyrene Costar plate up to a final volume of 30 μL: 3 μL DMSO, or inhibitor dissolved in DMSO and 27 μL DltA enzyme in AB. After 30 min of pre-incubation at room temperature, 30 μL of Substrates mix in AB were added in each well to a final volume of 60 μL. This reaction mixture was then composed of DltA (produced in house from S. aureus, E. faecalis, E. faecium and S. agalactiae), 0.5 mM D-Alanine (Sigma), 0.5-5 μM ATP (Sigma) and 0.05 u/ml inorganic pyrophosphatase (Sigma) in assay buffer. After typically 1-2 hours of incubation at room temperature (conversion rate around 30%), 30 μL of the revelation mix were added to a final volume of 90 μL, including the following constituents at the respective final concentrations: 10000 u/ml luciferase (Sigma), 30 μM D-luciferin (Sigma), 100 μM N-acetylcysteamine (Aldrich). Luminescence intensity was immediately measured on a Fluostar Optima (BMG) (excitation 360 nm, emission 520 nm) and converted into inhibition percentages. For IC50 determinations (Inhibitory Concentration 50%) the inhibitor was added at 6 to 10 different concentrations and the related inhibitions were fitted to a classical Langmuir equilibrium model using XLFIT (IDBS).

[2] = biological target: T2, D-alanine--D-alanyl carrier protein ligase (Enterococcus faecium (strain ATCC BAA-472 / TX0016 / DO), UniProt Q3XZT7)
T2 sequence (Q3XZT7 whole entry): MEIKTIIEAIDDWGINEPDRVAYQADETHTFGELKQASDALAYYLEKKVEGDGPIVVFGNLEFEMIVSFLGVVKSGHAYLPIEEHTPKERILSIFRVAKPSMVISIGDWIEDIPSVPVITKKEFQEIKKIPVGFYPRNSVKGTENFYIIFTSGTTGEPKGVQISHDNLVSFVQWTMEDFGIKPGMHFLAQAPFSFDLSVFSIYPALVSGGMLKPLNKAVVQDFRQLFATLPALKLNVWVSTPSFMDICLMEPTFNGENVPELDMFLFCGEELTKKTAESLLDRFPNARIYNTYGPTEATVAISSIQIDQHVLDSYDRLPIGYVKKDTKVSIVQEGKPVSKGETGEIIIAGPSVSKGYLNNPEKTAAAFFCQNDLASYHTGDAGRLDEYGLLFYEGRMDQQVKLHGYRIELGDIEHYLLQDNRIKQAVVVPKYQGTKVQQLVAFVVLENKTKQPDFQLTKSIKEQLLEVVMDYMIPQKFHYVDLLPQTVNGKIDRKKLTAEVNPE
Protocol: as §1

[3] = biological target: T3, D-alanine--D-alanyl carrier protein ligase (Staphylococcus aureus, UniProt Q2FZW6)
T3 construct: gene dltA
Protocol: as §1

T3 sequence (Q2FZW6 whole entry, looked up): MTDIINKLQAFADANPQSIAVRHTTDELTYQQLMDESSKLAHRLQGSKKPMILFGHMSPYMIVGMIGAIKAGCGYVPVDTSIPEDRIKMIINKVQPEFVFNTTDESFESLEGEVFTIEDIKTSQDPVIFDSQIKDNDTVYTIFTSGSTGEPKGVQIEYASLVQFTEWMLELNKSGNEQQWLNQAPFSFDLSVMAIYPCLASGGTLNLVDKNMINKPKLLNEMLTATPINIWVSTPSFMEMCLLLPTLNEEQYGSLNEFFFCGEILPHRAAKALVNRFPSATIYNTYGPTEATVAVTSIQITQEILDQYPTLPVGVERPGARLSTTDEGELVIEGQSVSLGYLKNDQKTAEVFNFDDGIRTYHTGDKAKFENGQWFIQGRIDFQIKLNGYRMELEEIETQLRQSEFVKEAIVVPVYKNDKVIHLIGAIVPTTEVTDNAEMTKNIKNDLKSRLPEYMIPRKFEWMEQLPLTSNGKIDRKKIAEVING

C[C@H]1CCCC(n2cnc3cc(-c4cc(N(C)CCN(C)C)c(C(N)=O)c5[nH]cnc45)ccc32)C1 (mixture of isomers)
IC50 [1]: 0.0043 µM
IC50 [2]: 0.025 µM

CCn1cnc2cc(-c3cc(OCCN(C)C)c(C(N)=O)c4[nH]cnc34)ccc21 [US10301305, Example 198]
IC50 [1]: 0.0083 µM
IC50 [2]: 0.073 µM
IC50 [3]: 0.0068 µM

COc1cc(-c2ccc3c(c2)ncn3C2CCCCC2)c2nc[nH]c2c1C(N)=O [US10301305, Example 88]
IC50 [1]: 0.026 µM
IC50 [2]: 0.079 µM
IC50 [3]: 0.033 µM
